Reference: patent publication US20200131473A1, “METHOD OF GENERATING 2 CELL-LIKE STEM CELLS” (IFOM FONDAZIONE ISTITUTO FIRC DI ONCOLOGIA MOLECOLARE, priority 2017, published 2020)

Assays:
[1] = tested on: mouse embryonic fibroblast (MEF) lines; assay: qPCR for 2C-specific markers in MEF lines; assay type: cell-based; conditions: two MEF lines with distinct genetic backgrounds
Experimental: ESCs were grown in feeder free culture condition either with or without 0.1% gelatin coat and incubated in 37° C. and 3% 02 tension. ESC medium (high glucose DMEM (DMEM Media—GlutaMAX™-I, Gibco)), 15% ESC qualified FBS (HyClone™ Fetal Bovine Serum), 2 mM L-glutamine, 1/500 home-made leukemia inhibitory factor, 0.1 mM non-essential amino acids, 0.1 mM 2-bmercaptoethanol, 50 units/ml penicillin, […] streptomycin, 1 mM Sodium Pyruvate) supplemented with two inhibitors (2i from Axon medchem) that are PD 0325901; highly specific non-ATP-competitive inhibitor of MEK (aka MKK) 1/2 at final concentration of 1 uM and CHIR 99021; specific glycogen synthase kinase GSK-3 inhibitor at final concentration of 3 uM. MEF cells were cultured in MEF medium (high glucose DMEM (Lonza), 10% north America FBS, 2 mM L-glutamine, 0.1 mM non-essential amino acids, 50 units/ml penicillin, 1 mM Sodium Pyruvate and […] streptomycin).
RNA was extracted using RNeasy mini kit (QIAGEN), quantified by NanoDrop spectrophotometer and cDNA was prepared from 2 μg total DNA-depleted RNA using SuperScript™ III reverse transcriptase kit (Invitrogen cat #18080-093) following manufacturer's instructions. qPCR assay performed based on standard protocol using […] SsoFast™ EvaGreen® Supermix or later 1× LightCycler 480 SYBR Green I Master (Roche, 04707516001), 0.5 μM primer mix and 5 ng of cDNA. […]

ATR Seckel and WT ESCs = assay: In-vitro differentiation toward giant trophoblast-like cells; assay type: cell-based, mouse
Experimental: (§1) RNA was extracted using RNeasy mini kit (QIAGEN), quantified by NanoDrop spectrophotometer and cDNA was prepared from 2 μg total DNA-depleted RNA using SuperScript™ III reverse transcriptase kit (Invitrogen cat #18080-093) following manufacturer's instructions. qPCR assay performed based on standard protocol using 10× SsoFast™ EvaGreen® Supermix or later 1× LightCycler 480 SYBR Green I Master (Roche, 04707516001), 0.5 μM primer mix and 5 ng of cDNA. GAPDH was used as internal control to normalise the qPCR data following ΔΔCt method, 10 μM primer mix and a total amount of cDNA corresponding to 5 ng of starting RNA for each reaction.
Then, cells were incubated with primary antibody at 4° C. overnight, followed by washes and incubation with secondary antibody for an hour at room temperature. Next samples were mounted and images were acquired with wide field florescent microscope. Antibodies used in this study were Anti Oct-3/4 (Santa Cruz sc-5279), Anti Nanog (Abcam ab80892) and Plet-1 antibody (Nordic MUbio MUB1512P) and), Anti-GFP (Abcam, ab5450). Acquired figures were analyzed with ImageJ software. […]

morula-stage embryos = assay: Mouse chimaera assay; assay type: in vivo; conditions: APH-treated mCherry ESCs injected into morula, 24 hrs post injection; 7 out of 35
Experimental: Briefly, morula stage embryos were bought from Charles River laboratories. They were thawed few hours prior to injection and about five to eight ESC were injected into the perivitelline space of high quality morula-stage embryos using laser-assisted technique and glass micro-capillary tubes. Finally, embryos were cultured for 24 hours at 37 C, 5% CO2 to allow the blastocysts development prior to the microscopic analysis.
For ETAA-1 inducible cells, 8-cell morulae were obtained from superovulated C57BL/6 prepubescent females from Janvier Labs. Ten ESCs were injected into each morula after piercing their zona pellucida with beveled microinjection needle. Embryos were kept in M2 medium during the injection and afterwards in KSOM medium at 37° C. under 5% CO2. Morulae were either cultured for 48 hrs to study ESC contribution at late blastocyst stage (E4.5), or transferred to pseudopregnant females and later dissected at E7.5. Chimerism and ESC contribution to the various embryonic layers were assessed by emission of mCherry fluorescence signal.
For the APH-treated ESCs, frozen morula-stage embryos were purchased from Charles River and Janvier laboratories. Embryos were thawed 2 hrs prior to injection and 4 to 8 ESCs were transferred into the perivitelline space by laser-assisted microinjection method. […]

[2] = tested on: morula stage mouse embryos; assay: qPCR for 2C-embryo specific genes in APH-treated morula-stage mouse embryos; assay type: cell-based
Experimental: as §1
Cryopreserved C57BL/6N morulae purchased from Janvier Labs (QUICKBLASTO®), were thawed according to the manufacturer's protocol. After recovery, a group of healthy morulae were treated with APH at final concentration of 1.5 μM in KSOM culture medium for 4 hrs while the rest were kept as control. The day after, the same number of morphologically healthy and synchronized blastocysts (22 and 7 blastocysts in the 1st and 2nd round, respectively) were selected from both groups. […] As the quantity of isolated RNA is not detectable by NanoDrop spectrophotometer, the supernatant was directly used for cDNA preparation following centrifugation at 10621 g for 2 minutes. cDNA preparation and qPCR were performed following the aforementioned protocols. […]

C[C@@]1(CO)[C@H](O)CC[C@@]2(C)[C@H]1CC[C@H]1C[C@@H]3C[C@@]12CC[C@]3(O)CO [APH, aphidicolin]
expression of main 2C-specific markers such as MuERV-L in MEF lines [1]: do not alter
number of giant trophoblast-like cells (ATR Seckel and WT ESCs; APH treatment): more than three folds
giant trophoblast cell specific marker Prl2c2 (qPCR) in ATR activated condition (ATR Seckel and WT ESCs; wild type ESC treated with APH): highest expression
chimeric embryos with contribution to the trophectoderm layer of the blastocysts (morula-stage embryos): 20%
expression of 2C embryo specific markers Dux, MERVL and Gm4981 (qPCR) ([2]; morula-stage embryos treated with APH, blastocyst stage): activated the expression of several key 2C embryo specific markers
expression of 2C-embryo-specific genes Zscan4, Tcstv3, GM12794 and Eif1a (qPCR) ([2]; morula-stage embryos, APH 1.5 μM for 4 hrs, blastocysts analysed the day after): activate several key 2C-embryo-specific genes
